This note sets out measurements from ChEMBL document CHEMBL1153655, “Rational design and synthesis of a novel, selective class of thrombin inhibitors: P1-argininal derivatives incorporating P3P4 quaternary lactam dipeptide surrogates” (Bioorg Med Chem Lett, 1997).

Bounds are passed on as bounds.

Assay [1] has as its target Serine protease 1 (Homo sapiens, UniProt P07477). As to the kind of experiment: The compound was tested in vitro for inhibitory activity against human trypsin.
The target of assay [2] is T1, Coagulation factor X (Homo sapiens, UniProt P00742). As to the kind of experiment: The compound was tested in vitro for inhibitory activity against Coagulation factor X.
The target of assay [3] is Prothrombin (Homo sapiens, UniProt P00734). Description: The compound was tested in vitro for inhibitory activity against Coagulation factor II.
In assay [4] the target is T1, Coagulation factor X. Description: The compound was tested in vitro for inhibitory activity against Coagulation factor X; Inactive.
The target of assay [5] is T1, Coagulation factor X. Description: The compound was tested in vitro for inhibitory activity against Coagulation factor X; inactive.

Chain of Serine protease 1 (P07477 whole entry): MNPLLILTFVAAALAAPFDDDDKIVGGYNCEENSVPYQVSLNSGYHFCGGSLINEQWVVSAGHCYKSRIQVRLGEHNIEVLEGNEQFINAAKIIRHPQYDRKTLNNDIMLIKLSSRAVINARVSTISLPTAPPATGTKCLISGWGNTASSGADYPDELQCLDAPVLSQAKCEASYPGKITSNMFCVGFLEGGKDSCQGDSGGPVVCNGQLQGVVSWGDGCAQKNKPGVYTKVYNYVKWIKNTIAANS
T1 sequence (P00742 41-179 limits assumed): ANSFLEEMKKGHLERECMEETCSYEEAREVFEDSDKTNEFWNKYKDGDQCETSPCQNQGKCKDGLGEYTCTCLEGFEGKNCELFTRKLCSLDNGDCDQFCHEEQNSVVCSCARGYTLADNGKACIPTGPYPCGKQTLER
T1 sequence (P00742 235-488 limits assumed): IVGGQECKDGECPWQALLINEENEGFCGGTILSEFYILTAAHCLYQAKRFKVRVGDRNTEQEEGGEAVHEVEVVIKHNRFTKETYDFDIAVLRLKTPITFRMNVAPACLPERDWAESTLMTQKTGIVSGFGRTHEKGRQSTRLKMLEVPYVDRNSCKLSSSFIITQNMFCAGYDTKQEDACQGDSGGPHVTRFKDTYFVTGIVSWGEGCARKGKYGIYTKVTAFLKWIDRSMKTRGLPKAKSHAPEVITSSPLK

A word on the IC50: it is the point on the concentration scale where inhibition reaches its midpoint. Read a high IC50 as weaker potency. Take `N=C(N)N1CCC[C@H](NC(=O)CN2CCC[C@H](NS(=O)(=O)Cc3ccccc3)C2=O)C1O` (some centres undefined): the results for the IC50 in assay [1] and in assay [2] were 1.27 µM and above 2.5 µM, respectively.
As to `N=C(N)N1CCC[C@H](NC(=O)CN2CCCC[C@@](N)(Cc3ccccc3)C2=O)C1O` (some centres undefined), the IC50 is 0.969 µM in assay [1], above 2.5 µM in assay [2] and 0.0149 µM in assay [3].
`N=C(N)N1CCC[C@H](NC(=O)CN2CCC(NS(=O)(=O)Cc3ccccc3)C2=O)C1O` (some centres undefined): the results for the IC50 in assay [1], in assay [2] and in assay [3] were 0.538 µM, above 2.5 µM and 0.125 µM, respectively.
`N=C(N)N1CCC[C@H](NC(=O)CN2CCC[C@@](N)(Cc3ccccc3)C2=O)C1O.O=C(O)C(F)(F)F` (some centres undefined): the values for the IC50 in assay [1], in assay [4] and in assay [3] were 0.139 µM, “Not Active” and 0.00207 µM, respectively.
Turning to `N=C(N)N1CCC[C@H](NC(=O)CN2CCC[C@](N)(Cc3ccccc3)C2=O)C1O.O=C(O)C(F)(F)F` (some centres undefined), the half-inhibitory concentration (IC50) in assay [1] is 2.5 µM; in assay [5], “Not Active”; in assay [3] it was 0.138 µM.
`CS(=O)(=O)NC1(Cc2ccccc2)CCCN(CC(=O)N[C@H]2CCCN(C(=N)N)C2O)C1=O` (some centres undefined): the IC50 is 0.0522 µM in assay [1], above 2.5 µM in assay [2] and 0.0319 µM in assay [3].
Consider `COC(=O)NC1(Cc2ccccc2)CCCCN(CC(=O)N[C@H]2CCCN(C(=N)N)C2O)C1=O` (some centres undefined), for which the IC50 in assay [1] was 2.5 µM; in assay [2] it was 2.5 µM; in assay [3], 0.466 µM.
On to `N=C(N)N1CCC[C@H](NC(=O)CN2CCCC[C@](N)(Cc3ccccc3)C2=O)C1O.O=C(O)C(F)(F)F` (some centres undefined), for which the IC50 is 2.5 µM in assay [1], “Not Active” in assay [4] and 0.193 µM in assay [3].
`N=C(N)N1CCC[C@H](NC(=O)CN2CC[C@@](N)(Cc3ccccc3)C2=O)C1O` (some centres undefined): the IC50 in assay [1] is 1.38 µM; in assay [2], 2.5 µM; in assay [3], 1.38 µM.
In the case of `N=C(N)N1CCC[C@H](NC(=O)CN2CCCC[C@H](NS(=O)(=O)Cc3ccccc3)C2=O)C1O` (some centres undefined), the figures for the half-maximal inhibitory concentration (IC50) in assay [1], in assay [2] and in assay [3] were 0.152 µM, 0.0228 µM and 0.00071 µM, respectively.
